Measurements reported in patent US6878536B2, “Phosphoriboxyl-pyrophosphate synthetase polypeptide” (BASF, priority 1997, dated 2005).

Test system: glutamine-PRPP amidotransferase from Ashbya gossypii
Assay: Activity of glutamine-PRPP amidotransferase (Messenger and Zalkin method)
Assay type: biochemical
Conditions: wild-type enzyme, FIG. 1
From the text: The glutamine-PRPP amidotransferase from Ashbya gossypii is likewise inhibited by AMP or GMP (see Figure). The activity of glutamine-phosphoribosyl-pyrophosphate amidotransferase from Ashbya gossypii can be measured as described in Messenger and Zalkin (1979) J. Biol. Chem. 254, pages 3382-3392.
This can be shown, for example, by expressing the enzymes in Ashbya gossypii (see Example 11).
Measurement of the activity of Gln-PRPP amidotransferase from A. gossypii and of modified forms of the enzyme as a function of the concentration of adenosine 5′-monophosphate (AMP) and guanosine 5′-monophosphate (GMP).

Row | Compound | inhibition of glutamine-PRPP amidotransferase from Ashbya gossypii
1 | Nc1ncnc2c1ncn2[C@@H]1O[C@H](COP(=O)(O)O)[C@@H](O)[C@H]1O [AMP, adenosine 5′-monophosphate] | inhibited
2 | Nc1nc2c(ncn2[C@@H]2O[C@H](COP(=O)(O)O)[C@@H](O)[C@H]2O)c(=O)[nH]1 [GMP, guanosine 5′-monophosphate] | inhibited
